# Test results taken from publication PMC4931252 (Nature Communications, 2016).
# Molecular target: T1, prion protein PrP (PrP^C, SHaPrP) (Mesocricetus auratus, UniProt P04273)
# T1 construct: gene PRNP
# Format: binding
# T1 sequence (P04273 90-231 limits assumed): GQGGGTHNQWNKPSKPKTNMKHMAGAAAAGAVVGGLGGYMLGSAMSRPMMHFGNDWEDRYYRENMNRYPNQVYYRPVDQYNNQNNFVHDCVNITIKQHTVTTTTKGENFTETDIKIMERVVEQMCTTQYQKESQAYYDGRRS
smiles,measurement,value
"C[n+]1ccc(-c2c3nc(c(-c4cc[n+](C)cc4)c4ccc([nH]4)c(-c4cc[n+](C)cc4)c4nc(c(-c5cc[n+](C)cc5)c5ccc2[nH]5)C=C4)C=C3)cc1.[Fe+3] [Fe-TMPyP, iron(III) meso-tetra (N-methyl-4-pyridyl-porphine)]",Kd,9 ± 3 µM
